From US7781594B2, “5-(4-methanesulfonyl-phenyl)-thiazole derivatives for the treatment of acute and chronic inflammatory diseases” (Faes Farma, S.A., priority 2008, dated 2010)
Entries after “also recorded” stand apart in the source; their conditions may differ.

What was measured:
Type in all cases: cell-based, human
[1] = tested on: TNF-alpha; test: TNF-alpha production by PBMC from patients with rheumatoid arthritis, CBA
Experimental: (§1) CBA protocol was followed according to the manufacturer's instructions. The election of microparticles was performed following the summary of FIG. 1.
(§2) The acquisition on samples was performed with the BD FACS Array Bioanalyser System (FACSArray, Becton Dickinson, San José, Calif., USA) and the analysis of the results was completed with the software FCAP Array (Becton Dickinson) in a PC computer.
Briefly, the experimental protocol consisted of a plate pre-washing out with Wash Buffer. After decantation, the mixture of capture microparticles was re-suspended in the vortex. Standards and samples were added in the adequate dilution. […]
In another experiment, PBMC (5×10^4 cells per well) from 7 patients with rheumatoid arthritis were cultured in duplicate in 200 μl of complete medium supplemented with the highest solvent (10^−6 M), and 10^−6 M, 10^−7 M and 10^−8 M compound 12 and in the presence and absence of either LPS (10 μg/ml), or anti-CD3 (12.5 ng/ml) (Orthoclone OKT3, Orthopharmaceutical Corporation, Raritan N.J., USA)+anti-CD28 (⅓×10^5) (Clon 15E8, Menarini, Madrid, Spain), during 24 hours. Culture supernatants were frozen at −20° C. and the concentration of TNF-alpha quantified by BD FACS Array Bioanalyser by using CBA Flex Set (Becton Dickinson), specific for determining the concentration of that cytokine, following the manufacturer instructions.

[2] = tested on: IFN-gamma; test: IFN-gamma production by PBMC from healthy volunteers, CBA
Experimental: as §1, §2
(§3) Briefly, the experimental protocol consisted of a plate pre-washing out with Wash Buffer. After decantation, the mixture of capture microparticles was re-suspended in the vortex. Standards and samples were added in the adequate dilution. After permanent stirring incubation during 1 h, the PE detection reagent was added and incubated again during 2 h at room temperature. […]
PBMC (5×10^4 cells per well) from 13 healthy volunteers were cultured in duplicate in 200 μl of complete medium supplemented with the highest solvent concentration (10^−6 M), and 10^−6 M, 10^−7 M and 10^−8 M of compound 12 in the presence or absence, either of LPS (10 μg/ml), or anti-CD3 (12.5 ng/ml)+anti-CD28 (⅓×10^5), during 24 hours. Culture supernatants were frozen at −20° C. and the concentration of IFN-gamma was quantified by BD FACS Array Bioanalyser by using CBA Flex Set (Becton Dickinson), specific to determine the concentration of IFN-gamma, following the manufacturer instructions.

[3] = tested on: IFN-gamma; test: IFN-gamma production by PBMC from patients with rheumatoid arthritis, CBA
Experimental: as §1, §2, §3
PBMC (5×10^4 cells/well) from 7 patients with rheumatoid arthritis were cultured in duplicate 200 μl of complete medium supplement with the highest solvent concentration (10^−6 M), and 10^−6 M, 10^−7 M and 10^−8 M of compound 12, in the presence and absence either of LPS (10 μg/ml), or anti-CD3 (12.5 ng/ml)+anti-CD28 (⅓×10^5), during 24 hours. Culture supernatants were frozen at −20° C. and IFN-gamma concentration was assessed by BD FACS Array Bioanalyser by using CBA Flex Set, specific to determine IFN-gamma concentration, following the manufacturer instructions.

[4] = tested on: IL-8; test: IL-8 production by PBMC from healthy volunteers, CBA
Experimental: as §1, §2
(§4) Briefly, the experimental protocol consisted of a plate pre-washing out with Wash Buffer. After decantation, the mixture of capture microparticles was re-suspended in the vortex. Standards and samples were added in the adequate dilution. After permanent stirring incubation during 1 h, the PE detection reagent was added and incubated again during 2 h at room temperature. After a washing-out, the acquisition was performed in the flow cytometer.
The effect of compound 12 on the IL-8 production by the PBMC from healthy volunteers was further investigated, both in the presence and absence of LPS stimuli and monoclonal antibodies anti-CD3 and anti-CD28. PBMC (5×10^4 cells/well) from 13 healthy volunteers were cultured in duplicate in 200 μl of complete medium supplemented with the highest solvent concentration (10^−6 M), and 10^−6 M, 10^−7 M and 10^−8 M of compound 12, in the presence and absence of either LPS (10 μg/ml) or anti-CD3 (12.5 ng/ml)+anti-CD28 (⅓×10^5), during 24 hours. Culture supernatants were frozen at −20° C. and IL-8 concentration was quantified by BD FACS Array Bioanalyser by using CBA Flex Set, specific to determine the IL-8 concentration, following the manufacturer instructions.

[5] = tested on: IL-8; test: IL-8 production by PBMC from patients with rheumatoid arthritis, CBA
Experimental: as §1, §2, §4
The effect on IL-8 production by PBMC from patients with rheumatoid arthritis was also studied. […] Culture supernatants were frozen at −20° C. and IL-8 concentration was quantified by BD FACS Array Bioanalyser by using CBA Flex Set, specific to determine IL-8 concentration, following the manufacturer instructions.

[6] = tested on: IL-10; test: IL-10 production by PBMC from healthy volunteers, CBA; conditions: FIG. 9
Experimental: as §1, §2, §4
The effects of compound 12 on IL-10 production by the PBMC from healthy volunteers and patients with rheumatoid arthritis were investigated in the presence and absence of LPS stimulation and with the combination of monoclonal antibodies anti-CD3 and anti-CD28. […]

[7] = tested on: IL-10; test: IL-10 production by PBMC from patients with rheumatoid arthritis, CBA
Experimental: as §1, §2, §4
On the other hand, PBMC (5×10^4 cells per well) from 8 patients with rheumatoid arthritis were cultured in duplicate in 200 μl of complete medium supplemented with the highest solvent concentration (10^−6 M), and 10^−6 M, 10^−7 M and 10^−8 M of compound 12 in the presence and absence of either LPS (10 μg/ml) or anti-CD3 (12.5 ng/ml), +anti-CD28 (⅓×10^5), during 24 hours. […]

How did the “Effect on TNF-alpha production by PBMC, spontaneous or anti-CD3 and anti-CD28 stimulated” value [1] turn out when `Cc1nc(OC2CCCC2)c(-c2ccc(S(C)(=O)=O)cc2)s1` [Compound 12, 4-cyclopentyloxy-5-(4-methylsulfonyl-phenyl)-2-methyl-thiazole] was run?
The value was “neither inhibited the spontaneous TNF-alpha production nor the one obtained after stimulation with monoclonal antibodies anti-CD3 and anti-CD28”.

What about the “Effect on TNF-alpha production in LPS-stimulated PBMC” value ([1]; 10^−6 M, p<0.05, FIG. 4) of the same compound?
Its value is “significantly inhibited”.

What about the “Effect on IFN-gamma production by PBMC, LPS-stimulated or anti-CD3 and anti-CD28 stimulated” value ([2]; 10^−6 M, p<0.05, FIG. 5) of the same compound?
The value was “significantly inhibited”.

And the “Effect on spontaneous secretion of IFN-gamma by PBMC” value ([2]; no stimulus)?
The value was “not modified”.

What about the “Effect on IFN-gamma production by PBMC stimulated with anti-CD3 and anti-CD28” value ([3]; patients with rheumatoid arthritis, 10^−6 M, 10^−7 M and 10^−8 M, p<0.05, FIG. 6) of the same compound?
Its value is “significantly lowered”.

What about the “Effect on IFN-gamma secretion by PBMC, spontaneous or LPS-induced” value ([3]; printed 'from healthy volunteers' in the paragraph on patients with rheumatoid arthritis) of the same compound?
The value was “modified neither the spontaneous IFN-gamma secretion nor the LPS-induced”.

What about the “Effect on IL-8 production under LPS stimulation of PBMC” value [4] of the same compound?
The value was “no effects were observed”.

And the “Effect on spontaneous production of IL-8 by PBMC” value ([4]; 10^−6 M and 10^−7 M, p<0.05, FIG. 7)?
Its value is “significantly inhibited”.

And the “Effect on IL-8 production induced by anti-CD3 and anti-CD28” value ([4]; 10^−8 M)?
The value was “significant inhibition”.

What about the “Effect on IL-8 production by PBMC, spontaneous or anti-CD3 and anti-CD28 induced” value [5] of the same compound?
Its value is “neither modified the spontaneous IL-8 production nor that induced by the combination of monoclonal antibodies anti-CD3 and anti-CD28”.

And the “Effect on LPS-induced production of IL-8 in PBMC” value ([5]; 10^−6 M and 10^−8 M, FIG. 8)?
Its value is “significantly inhibited”.

And the “Effect on IL-10 production by PBMC in the presence and absence of LPS or anti-CD3 + anti-CD28” value [6]?
The value was “no effects; also recorded: No statistical differences were found”.

What about the “Effect on IL-10 production by PBMC, spontaneous or anti-CD3 and anti-CD28 stimulated” value [7] of the same compound?
The value was “no significant effects”.

And the “Effect on IL-10 production after stimulation with LPS” value ([7]; 10^−8, p<0.05, FIG. 10)?
Its value is “significantly inhibited”.
